Results on one compound are retold here after article PMC7918738, “Microtubule Destabilizing Sulfonamides as an Alternative to Taxane-Based Chemotherapy” (International Journal of Molecular Sciences, 2021).

In this test the test system is HT-29 (colon adenocarcinoma). Nature of the test: Antiproliferative activity against CA-4-resistant HT-29 with or without verapamil (sensitivity to MDR pumps, XTT). The test is classed as cell-based, human. The following applies: verapamil alone at 10 µM. From the text: Detecting changes in drug potency when inhibiting MDR-mediated efflux reflect that these transporters reduce the intracellular drug concentration. HT-29 has been reported to express moderate levels of MDR1, accounting for a resistant phenotype. A comparison of the antiproliferative IC50 values of each MDS in the presence or absence of verapamil provides an estimate of the susceptibility of each compound to efflux pumps.
MCF7 (human breast carcinoma), SKOV-3 (human ovarian carcinoma), OVCAR-3 (human ovarian carcinoma), OVCAR-8 (human ovarian carcinoma), and HeLa (human cervical carcinoma) cell lines were cultured in Dulbecco’s Modified Eagle’s Medium (DMEM) (Gibco, Thermo Fischer Scientific) containing 10% (v/v) heat-inactivated fetal bovine serum (HIFBS) (Lonza-Cambrex, Karlskoga, Sweden), 2 mM L-glutamine (Lonza-Cambrex, Karlskoga, Sweden), 100 μg/mL streptomycin, and 100 IU/mL penicillin (Lonza-Cambrex) at 37 °C in humidified 95% air and 5% CO2. HT-29 (human colon carcinoma), IGROV-1 (human ovarian carcinoma), and A2780 (human ovarian carcinoma) cell lines were cultured in RPMI 1640 medium (Gibco, Thermo Fischer Scientific) supplemented with 10% HIFBS, 100 μg/mL streptomycin, and 100 IU/mL penicillin at 37 °C in humidified 95% air and 5% CO2 atmosphere. The presence of mycoplasma was routinely checked with MycoAlert kit (Lonza-Cambrex) and only mycoplasma-free cells were used in the experiments. Ovarian tumor cell lines were originally acquired from Dr Atanasio Pandiella from Centro de Investigación del Cáncer (CIC), Salamanca, Spain. HeLa, HT-29 and MCF7 tumor cell lines were provided by Dr Faustino Mollinedo from Centro de Investigaciones Biológicas Margarita Salas, Madrid, Spain.
MCF7, HeLa, and HT-29 cell proliferation, when treated with the corresponding compounds, were determined using the XTT (sodium 3’-[1(phenylaminocarbonyl)-3,4-tetrazolium]-bis(4-methoxy-6-nitro)-benzenesulfonic acid hydrate) cell proliferation kit (Roche Molecular Biochemicals, Mannheim, Germany). A freshly prepared mixture of XTT labeling reagent with 0.02% (v/v) PMS (N-methyl-dibenzopyrazine methyl sulfate) electron coupling reagent was added to cells (50 µL/well in 96-well plates, total volume of 160 µL/well). Cells were incubated under standard culture conditions for 4 h (MCF7 and HeLa) or 6 h (HT-29). The absorbance of the formazan product generated was measured at 450 nm using a multi-well plate reader. SKOV-3, OVCAR-3, OVCAR-8, IGROV-1, A-2780 cell proliferation, when treated with the corresponding compound, were determined using MTT (3-(4,5-dimethylthiazol-2-yl)-2,5-diphenyl-2H-tetrazolium bromide) (Sigma-Aldrich, St. Louis, MO, USA). MTT in Phosphate Buffer Saline (PBS) (5 mg/ml) was added to cells (110 µL/well in 24-well plates, total volume of 1110 µL/well). After 1 hour of incubation, the medium was aspirated, and formazan violet crystals were dissolved in dimethyl sulfoxide (DMSO) (500 µL/well). Absorbance was measured at 570 nm in a plate reader (Ultra Evolution, Tecan, Männedorf, Suiza). To determine cell viability, cells in exponential growth phase were seeded (100 µL/well in 96-well plates and 1000 µL/well in 24-well plates) with appropriate cell line concentration (1.5·10^4 cells/mL for MCF7 and HeLa, 3·10^4 cells/mL for HT-29, and 1·10^4 cells/mL for SKOV-3, OVCAR-3, OVCAR-8, IGROV-1, and A-2780) in complete RPMI 1640 or DMEM medium at 37°C and 5% CO2 atmosphere. After 24 h incubation, to allow cells to attach to the plates, all compounds were added at 1 µM concentration and the effect on the proliferation was evaluated 72 h post-treatment. […] Non-linear curves fitting the experimental data were carried out for each compound. Compounds were dissolved in DMSO and the final solvent concentrations never exceeded 0.5% (v/v). The control wells included […] with 0.5% (v/v) DMSO and the positive control. 10 µM verapamil was included as a control for the HT-29 cell line.
In general terms: Formazan colour is commonly taken as a measure of viable cells.

Turning to `COc1ccc(CCN(C)CCCC(C#N)(c2ccc(OC)c(OC)c2)C(C)C)cc1OC` (stereo not shown) [verapamil, reference compound], the “Effect on HT-29 cell proliferation” value is listed as “did not affect cell proliferation”.
